The subject of this test is HepG2 cells. The experiment in a line: Imaging oxidized thiols in HepG2 cells under oxidative stress by NAI/NAIA couple. To be noted: 50 μM, 10 min. The format is cell-based. The protocol: Imaging Oxidized Thiols in HepG2 Cells Under Oxidative Stress by NAI/NAIA Couple
HepG2 cells were plated on a 8-well Nunc Lab-Tek chambered slide system and allowed to grow in complete medium at 37° C. with 5% CO2 to ca. 70% confluency. The cells were then pretreated with solvent vehicles, H2O2 (0.5 or 1 mM) or H2O2 (1 mM)+NAC (5 mM) in complete medium for 15 min at 37° C. The cells were washed with PBS and incubated with NAI compound 3 (50 μM) in complete medium for 10 min at 37° C. After that, the cells were washed with PBS and fixed by 4% paraformaldehyde in PBS at room temperature for 15 min. […] The cells were washed thrice with PBS and then imaged in PBS by confocal fluorescence microscopy.
Confocal fluorescence microscopy imaging was performed with a Zeiss laser scanning microscope 880 with a 20× water-immersion objective lens using ZEN 2.3 (Black Version) software (Carl Zeiss) with 3× magnification zoom-in. […] A region of interest (ROI) was created around individual cell, and cellular fluorescence intensity was measured. The reported average cellular fluorescence intensity was determined by averaging the measured intensity from 30 different cells from 3 different biological replicates/group. […]
Therefore, we sought to utilize the NAI/NAIA couple to capture oxidized thiols and image them by confocal fluorescence microscopy (FIGS. 12A-12B). […]

As to `C=CC(=O)N1CCc2cc(OCC(=O)OC(C)(C)C)ccc21` [compound 3b], the “trapping of free thiols in live cells” value is reported as “excellent trapping of free thiols”.

Source of the values: patent US20240103005A1, “N-ACRYLOYLINDOLES AND METHODS OF USE” (The University of Hong Kong, priority 2022, published 2024).
